The first assay concerns HIV-IIIb. As to the kind of experiment: Test A: Antiviral Assays in MT4 Cells. Format: cell-based. As to conditions: Human immunodeficiency virus 1, IIIB, MT4, 120 h, MT-4 cells infected with HIV-IIIb (0.004 m.o.i.), 5 days of incubation, CellTiter-Glo chemiluminescence readout. How it is done:
Test A: Antiviral Assays in MT4 Cells For the antiviral assay utilizing MT-4 cells, 0.4 μL of 189X test concentration of 3-fold serially diluted compound in DMSO was added to 40 μL of cell growth medium (RPMI 1640, 10% FBS, 1% penicillin/Streptomycin, 1% L-Glutamine, 1% HEPES) in each well of 384-well assay plates (10 concentrations) in quadruplicate. 1 mL aliquots of 2×10e6 MT-4 cells are pre-infected for 1 and 3 hrs respectively, @ 37° C. with 25 μL (MT4) or of either cell growth medium (mock-infected) or a fresh 1:250 dilution of an HIV-IIIb concentrated ABI stock (0.004 m.o.i. for MT4 cells). Infected and uninfected cells are diluted in cell growth medium and 35 uL of 2000 (for MT4) cells is added to each well of the assay plates. Assay plates were then incubated in a 37° C. incubator. After 5 days of incubation, 25 μl of 2× concentrated CellTiter-Glo™ Reagent (catalog #G7573, Promega Biosciences, Inc., Madison, Wis.) was added to each well of the assay plate. Cell lysis was carried out by incubating at room temperature for 2-3 min and then chemiluminescence was read using the Envision reader (PerkinElmer).
For `Cc1cc2nc(-c3cn(C)cn3)ccc2c(-c2ccc(Cl)cc2)c1[C@H](OC(C)(C)C)C(=O)O` [Compound 86, (S)-2-tert-butoxy-2-(5-(4-chlorophenyl)-7-methyl-2-(1-methyl-1H-imidazol-4-yl)quinolin-6-yl)acetic acid], the EC50 – broadly, the concentration needed to bring the measured effect to its halfway point – came out at 0.078 µM. On the same count and under the same terms, next, `Cc1cc2nc(CN(C)C)ccc2c(-c2ccc(Cl)cc2)c1[C@H](OC(C)(C)C)C(=O)O` [Compound 9, (S)-2-tert-butoxy-2-(5-(4-chlorophenyl)-2-((dimethylamino)methyl)-7-methylquinolin-6-yl)acetic acid]: 0.173 µM; `Cc1cccc(C)c1-c1ccc2c(-c3ccc4c5c(ccnc35)CCO4)c([C@H](OC(C)(C)C)C(=O)O)c(C)cc2n1` [Compound 54, (S)-2-tert-Butoxy-2-((R)-5-(2,3-dihydropyrano[4,3,2-de]quinolin-7-yl)-2-(2,6-dimethylphenyl)-7-methylquinolin-6-yl)acetic acid]: 0.087 µM. Still for that read-out and setting: next, `Cc1cc2nc(-c3cccnc3)ccc2c(-c2ccc3c4c(ccnc24)CCO3)c1[C@H](OC(C)(C)C)C(=O)O` (atropisomer, axis not shown) [Compound 81, (S)-2-tert-butoxy-2-((R)-5-(2,3-dihydropyrano[4,3,2-de]quinolin-7-yl)-7-methyl-2-(pyridin-3-yl)quinolin-6-yl)acetic acid]: 0.069 µM; `Cc1cc2nc(-c3ccccn3)ccc2c(-c2ccc(Cl)cc2)c1[C@H](OC(C)(C)C)C(=O)O` [Compound 79, (S)-2-tert-butoxy-2-(5-(4-chlorophenyl)-7-methyl-2-(pyridin-2-yl)quinolin-6-yl)acetic acid]: 0.086 µM; `CCC(C)c1ccc2c(-c3ccc4c5c(ccnc35)CCO4)c([C@H](OC(C)(C)C)C(=O)O)c(C)cc2n1` (stereo partly drawn) [Compound 49, (2S)-2-tert-Butoxy-2-((5R)-2-sec-butyl-5-(2,3-dihydropyrano[4,3,2-de]quinolin-7-yl)-7-methylquinolin-6-yl)acetic acid]: 0.027 µM. In turn, `Cc1cc2nc(CCc3ccccc3)ccc2c(-c2ccc3c4c(ccnc24)CCO3)c1[C@H](OC(C)(C)C)C(=O)O` (atropisomer, axis not shown) [Compound 41, (S)-2-tert-butoxy-2-((R)-5-(2,3-dihydropyrano[4,3,2-de]quinolin-7-yl)-7-methyl-2-phenethylquinolin-6-yl)acetic acid] displayed an EC50 of 0.026 µM. The same measure, in the same setting: for `Cc1cc2nc(C(=O)O)ccc2c(-c2ccc(Cl)cc2)c1[C@H](OC(C)(C)C)C(=O)O` [Compound 24, (S)-6-(tert-Butoxy(carboxy)methyl)-5-(4-chlorophenyl)-7-methylquinoline-2-carboxylic acid] the value was 29.8 µM; for `Cc1cc2nc(-n3ccnc3)ccc2c(-c2ccc3c4c(ccnc24)CCO3)c1[C@H](OC(C)(C)C)C(=O)O` [Compound 98, (S)-2-tert-butoxy-2-((R)-5-(2,3-dihydropyrano[4,3,2-de]quinolin-7-yl)-2-(1H-imidazol-1-yl)-7-methylquinolin-6-yl)acetic acid], 0.251 µM. On the same count and under the same terms, next, `Cc1cc2nc(C3CCC3)ccc2c(-c2ccc3c4c(ccnc24)CCO3)c1[C@H](OC(C)(C)C)C(=O)O` (atropisomer, axis not shown) [Compound 47, (S)-2-tert-butoxy-2-((R)-2-cyclobutyl-5-(2,3-dihydropyrano[4,3,2-de]quinolin-7-yl)-7-methylquinolin-6-yl)acetic acid]: 0.014 µM.

Staying with this assay, now noted: MT-4 cells infected with HIV-IIIb (0.004 m.o.i.), 5 days of incubation, CellTiter-Glo chemiluminescence readout.
For the molecule `Cc1cc2nc(-c3cccs3)ccc2c(-c2ccc3c4c(ccnc24)CCO3)c1[C@H](OC(C)(C)C)C(=O)O` [Compound 69, (S)-2-tert-butoxy-2-((R)-5-(2,3-dihydropyrano[4,3,2-de]quinolin-7-yl)-7-methyl-2-(thiophen-2-yl)quinolin-6-yl)acetic acid], a half-maximal response (EC50) required 0.082 µM.

(Values after US9296758B2, “2-quinolinyl-acetic acid derivatives as HIV antiviral compounds” (GILEAD SCIENCES, INC., priority 2010, dated 2016).)
